System: patients after acute myocardial infarction
Experiment: Life quality, Seattle Angina Questionnaire (SAQ), same clinical trial
Type: in vivo, human
Settings: FAS
Text: 3508 patients who were in accordance with the diagnostic standards of AMI for 28 days to 2 years and differentiated as Qi deficiency and blood stagnation syndrome by TCM were studied. 0.5 g Chinese medicine composition prepared by the method of EXAMPLE 1 (Coded as QSYQ) was administrated half an hour after meal, 3 times per day.
There were 19 questions in the Seattle angina questionnaire (SAQ), including 5 parts: physical limitation (PL), anginal stability (AS), anginal frequency (AF), treatment satisfaction (TS) and disease perception (DP). After being given necessary explanation by doctors, the questions were answered independently by patients.
They included the overall survival time, angina pectoris score, TCM symptom score and life quality score, where angina pectoris score, TCM symptom score and life quality score were evaluated at randomization, in 1st, 3rd, 6th, 9th, 12th month after treatment and 18th month after follow-up.
All evaluation results of SAQ were described during the period of observation, and Wilcoxon rank sum test was used for inter-group comparison.
The evaluation results in the SAQ were depicted in different observations, and inter-group comparison was tested by Wilcoxon Rank-sum test.

CC(=O)Oc1ccccc1C(=O)O [Control group, aspirine]
SAQ 4th question, 1-3 times per day: number of patients (6 months after treatment): 82
SAQ 4th question, <1 time per week: % of patients (6 months after treatment): (11.98%)
SAQ 4th question, <1 time per week: number of patients (6 months after treatment): 209
SAQ 4th question, Not used: % of patients (6 months after treatment): (58.37%)
SAQ 4th question, Not used: number of patients (6 months after treatment): 1018
SAQ 4th question, ≧3 times per week: % of patients (6 months after treatment): (7.28%)
SAQ 4th question, ≧3 times per week: number of patients (6 months after treatment): 127
SAQ 4th question, ≧4 times per day: % of patients (6 months after treatment): (0.11%)
SAQ 4th question, ≧4 times per day: number of patients (6 months after treatment): 2
SAQ 5th question, 1-2 times per week: % of patients (6 months after treatment): (26.38%)
SAQ 5th question, 1-2 times per week: number of patients (6 months after treatment): 460
SAQ 5th question, 1-3 times per day: % of patients (6 months after treatment): (11.53%)
SAQ 5th question, 1-3 times per day: number of patients (6 months after treatment): 201
SAQ 5th question, <1 time per week: % of patients (6 months after treatment): (28.10%)
SAQ 5th question, <1 time per week: number of patients (6 months after treatment): 490
SAQ 5th question, No onset: % of patients (6 months after treatment): (4.30%)
SAQ 5th question, No onset: number of patients (6 months after treatment): 75
SAQ 5th question, ≧3 times per week: % of patients (6 months after treatment): (28.84%)
SAQ 5th question, ≧3 times per week: number of patients (6 months after treatment): 503
SAQ 5th question, ≧4 times per day: % of patients (6 months after treatment): (0.86%)
SAQ 5th question, ≧4 times per day: number of patients (6 months after treatment): 15
SAQ 6th question, Dissatisfied: % of patients (6 months after treatment): (0.17%)
SAQ 6th question, Dissatisfied: number of patients (6 months after treatment): 3
SAQ 6th question, Highly satisfied: % of patients (6 months after treatment): (21.62%)
SAQ 6th question, Highly satisfied: number of patients (6 months after treatment): 377
SAQ 6th question, Mostly dissatisfied: % of patients (6 months after treatment): (1.95%)
SAQ 6th question, Mostly dissatisfied: number of patients (6 months after treatment): 34
SAQ 6th question, Mostly satisfied: % of patients (6 months after treatment): (55.73%)
SAQ 6th question, Mostly satisfied: number of patients (6 months after treatment): 972
SAQ 6th question, Partly satisfied: % of patients (6 months after treatment): (20.53%)
SAQ 6th question, Partly satisfied: number of patients (6 months after treatment): 358
SAQ 7th question, Dissatisfied: % of patients (6 months after treatment): (0.11%)
SAQ 7th question, Dissatisfied: number of patients (6 months after treatment): 2
SAQ 7th question, Highly satisfied: % of patients (6 months after treatment): (25.03%)
SAQ 7th question, Highly satisfied: number of patients (6 months after treatment): 436
SAQ 7th question, Mostly dissatisfied: % of patients (6 months after treatment): (1.32%)
SAQ 7th question, Mostly dissatisfied: number of patients (6 months after treatment): 23
SAQ 7th question, Mostly satisfied: % of patients (6 months after treatment): (58.21%)
SAQ 7th question, Mostly satisfied: number of patients (6 months after treatment): 1014
SAQ 7th question, Partly satisfied: % of patients (6 months after treatment): (15.33%)
SAQ 7th question, Partly satisfied: number of patients (6 months after treatment): 267
SAQ Question 1-1 Mildly limited, number of patients (6 months after treatment): 29
SAQ Question 1-1 Mildly limited, percent of patients (6 months after treatment): (1.66%)
SAQ Question 1-1 Moderately limited, number of patients (6 months after treatment): 4
SAQ Question 1-1 Moderately limited, percent of patients (6 months after treatment): (0.23%)
SAQ Question 1-1 Not limited, number of patients (6 months after treatment): 1638
SAQ Question 1-1 Not limited, percent of patients (6 months after treatment): (93.92%)
SAQ Question 1-1 Other reasons, number of patients (6 months after treatment): 3
SAQ Question 1-1 Other reasons, percent of patients (6 months after treatment): (0.17%)
SAQ Question 1-1 Severely limited, number of patients (6 months after treatment): 1
SAQ Question 1-1 Severely limited, percent of patients (6 months after treatment): (0.06%)
SAQ Question 1-1 Slightly limited, number of patients (6 months after treatment): 69
SAQ Question 1-1 Slightly limited, percent of patients (6 months after treatment): (3.96%)
SAQ Question 1-2 Mildly limited, number of patients (6 months after treatment): 27
SAQ Question 1-2 Mildly limited, percent of patients (6 months after treatment): (1.55%)
SAQ Question 1-2 Moderately limited, number of patients (6 months after treatment): 8
SAQ Question 1-2 Moderately limited, percent of patients (6 months after treatment): (0.46%)
SAQ Question 1-2 Not limited, number of patients (6 months after treatment): 1615
SAQ Question 1-2 Not limited, percent of patients (6 months after treatment): (92.60%)
SAQ Question 1-2 Other reasons, number of patients (6 months after treatment): 6
SAQ Question 1-2 Other reasons, percent of patients (6 months after treatment): (0.34%)
SAQ Question 1-2 Severely limited, number of patients (6 months after treatment): 1
SAQ Question 1-2 Severely limited, percent of patients (6 months after treatment): (0.06%)
SAQ Question 1-2 Slightly limited, number of patients (6 months after treatment): 87
SAQ Question 1-2 Slightly limited, percent of patients (6 months after treatment): (4.99%)
SAQ Question 1-6: Mildly limited, patients (%) (6 months after treatment): (16.49%)
SAQ Question 1-6: Moderately limited, patients (%) (6 months after treatment): (11.78%)
SAQ Question 1-6: Not limited, patients (%) (6 months after treatment): (34.20%)
SAQ Question 1-6: Other reasons, patients (%) (6 months after treatment): (0.98%)
SAQ Question 1-6: Severely limited, patients (%) (6 months after treatment): (3.85%)
SAQ Question 1-6: Slightly limited, patients (%) (6 months after treatment): (32.70%)
SAQ Question 1-7: Mildly limited, patients (%) (6 months after treatment): (21.23%)
SAQ Question 1-7: Moderately limited, patients (%) (6 months after treatment): (13.48%)
SAQ Question 1-7: Not limited, patients (%) (6 months after treatment): (14.52%)
SAQ Question 1-7: Other reasons, patients (%) (6 months after treatment): (3.53%)
SAQ Question 1-7: Severely limited, patients (%) (6 months after treatment): (15.33%)
SAQ Question 1-7: Slightly limited, patients (%) (6 months after treatment): (31.93%)
SAQ Question 1-8: Mildly limited, patients (%) (6 months after treatment): (25.30%)
SAQ Question 1-8: Moderately limited, patients (%) (6 months after treatment): (16.42%)
SAQ Question 1-8: Not limited, patients (%) (6 months after treatment): (10.62%)
SAQ Question 1-8: Other reasons, patients (%) (6 months after treatment): (3.77%)
SAQ Question 1-8: Severely limited, patients (%) (6 months after treatment): (19.38%)
SAQ Question 1-8: Slightly limited, patients (%) (6 months after treatment): (24.49%)
8th question: Mostly satisfied, patients (%) (6 months after treatment, second line of the scale): (2.24%)
8th question: Dissatisfied, patients (%) (9 months after treatment): (0.34%)
8th question: Highly satisfied, patients (%) (9 months after treatment): (22.36%)
8th question: Mostly dissatisfied, patients (%) (9 months after treatment): (1.89%)
8th question: Mostly satisfied, patients (%) (9 months after treatment): (58.31%)
8th question: Partly satisfied, patients (%) (9 months after treatment): (17.09%)
9th question: Few, patients (%) (9 months after treatment): (37.79%)
9th question: Mild, patients (%) (9 months after treatment): (33.08%)
9th question: Moderate, patients (%) (9 months after treatment): (8.77%)
9th question: Severe, patients (%) (9 months after treatment): (0.97%)
9th question: Uneffective, patients (%) (9 months after treatment): (19.38%)
10th question: Dissatisfied, patients (%) (9 months after treatment): (19.55%)
10th question: Highly satisfied, patients (%) (9 months after treatment): (5.73%)
10th question: Mostly dissatisfied, patients (%) (9 months after treatment): (20.47%)
10th question: Mostly satisfied, patients (%) (9 months after treatment): (28.84%)
10th question: Partly satisfied, patients (%) (9 months after treatment): (25.40%)
11th question: Continuously worried, patients (%) (9 months after treatment): (3.44%)
11th question: No worried, patients (%) (9 months after treatment): (6.02%)
11th question: Occasionally worried, patients (%) (9 months after treatment): (41.80%)
11th question: Often worried, patients (%) (9 months after treatment): (12.33%)
11th question: Seldom worried, patients (%) (9 months after treatment): (36.41%)
SAQ 4th question, 1-2 times per week: % of patients (9 months after treatment): (15.60%)
SAQ 4th question, 1-2 times per week: number of patients (9 months after treatment): 272
SAQ 4th question, 1-3 times per week: % of patients (9 months after treatment): (4.30%)
SAQ 4th question, 1-3 times per week: number of patients (9 months after treatment): 75
SAQ 4th question, <1 time per week: % of patients (9 months after treatment): (15.14%)
SAQ 4th question, <1 time per week: number of patients (9 months after treatment): 264
SAQ 4th question, Not used: % of patients (9 months after treatment): (59.69%)
SAQ 4th question, Not used: number of patients (9 months after treatment): 1041
SAQ 4th question, ≧3 times per week: % of patients (9 months after treatment): (5.16%)
SAQ 4th question, ≧3 times per week: number of patients (9 months after treatment): 90
SAQ 4th question, ≧4 times per day: % of patients (9 months after treatment): (0.11%)
SAQ 4th question, ≧4 times per day: number of patients (9 months after treatment): 2
SAQ 5th question, 1-2 times per week: % of patients (9 months after treatment): (28.67%)
SAQ 5th question, 1-2 times per week: number of patients (9 months after treatment): 500
SAQ 5th question, 1-3 times per day: % of patients (9 months after treatment): (7.97%)
SAQ 5th question, 1-3 times per day: number of patients (9 months after treatment): 139
SAQ 5th question, <1 time per week: % of patients (9 months after treatment): (28.56%)
SAQ 5th question, <1 time per week: number of patients (9 months after treatment): 498
SAQ 5th question, No onset: % of patients (9 months after treatment): (4.47%)
SAQ 5th question, No onset: number of patients (9 months after treatment): 78
SAQ 5th question, ≧3 times per week: % of patients (9 months after treatment): (29.42%)
SAQ 5th question, ≧3 times per week: number of patients (9 months after treatment): 513
SAQ 5th question, ≧4 times per day: % of patients (9 months after treatment): (0.92%)
SAQ 5th question, ≧4 times per day: number of patients (9 months after treatment): 16
SAQ 6th question, Dissatisfied: % of patients (9 months after treatment): (0.23%)
SAQ 6th question, Dissatisfied: number of patients (9 months after treatment): 4
SAQ 6th question, Highly satisfied: % of patients (9 months after treatment): (23.62%)
SAQ 6th question, Highly satisfied: number of patients (9 months after treatment): 412
SAQ 6th question, Mostly dissatisfied: % of patients (9 months after treatment): (1.95%)
SAQ 6th question, Mostly dissatisfied: number of patients (9 months after treatment): 34
SAQ 6th question, Mostly satisfied: % of patients (9 months after treatment): (58.77%)
SAQ 6th question, Mostly satisfied: number of patients (9 months after treatment): 1025
SAQ 6th question, Partly satisfied: % of patients (9 months after treatment): (15.42%)
SAQ 6th question, Partly satisfied: number of patients (9 months after treatment): 269
SAQ 7th question, Dissatisfied: % of patients (9 months after treatment): (0.11%)
SAQ 7th question, Dissatisfied: number of patients (9 months after treatment): 2
SAQ 7th question, Highly satisfied: % of patients (9 months after treatment): (27.21%)
SAQ 7th question, Highly satisfied: number of patients (9 months after treatment): 474
SAQ 7th question, Most dissatisfied: % of patients (9 months after treatment): (1.09%)
SAQ 7th question, Most dissatisfied: number of patients (9 months after treatment): 19
SAQ 7th question, Mostly satisfied: % of patients (9 months after treatment): (59.53%)
SAQ 7th question, Mostly satisfied: number of patients (9 months after treatment): 1037
SAQ 7th question, Partly satisfied: % of patients (9 months after treatment): (12.06%)
SAQ 7th question, Partly satisfied: number of patients (9 months after treatment): 210
SAQ Question 1-1 Mildly limited, number of patients (9 months after treatment): 25
SAQ Question 1-1 Mildly limited, percent of patients (9 months after treatment): (1.43%)
SAQ Question 1-1 Moderately limited, number of patients (9 months after treatment): 5
SAQ Question 1-1 Moderately limited, percent of patients (9 months after treatment): (0.29%)
SAQ Question 1-1 Not limited, number of patients (9 months after treatment): 1643
SAQ Question 1-1 Not limited, percent of patients (9 months after treatment): (94.21%)
SAQ Question 1-1 Other reasons, number of patients (9 months after treatment): 3

Source: US9211310B2, “Use of a Chinese medicine composition in preparing medicaments for treating secondary prevention of myocardial infarction” (TASLY PHARMACEUTICAL GROUP CO., LTD, priority 2010, dated 2015)
